Laboratory results from patent US20260070922A1, “PYRAZOLE AND IMIDAZOLE DERIVATIVES AS DUAL OREXIN AND KAPPA-OPIOID RECEPTORS MODULATORS COMPOSITION, METHODS FOR TREATING NEUROLOGICAL AND PSYCHIATRIC DISORDERS” (HAGER BIOSCIENCES, LLC, priority 2022, published 2026).

How the values were obtained:
[1] = biological target: T1, Orexin type 1 (OX1R) receptor (Homo sapiens, UniProt O43613); test: In vitro orexin antagonism assay: intracellular calcium measurement (FLIPR), orexin-A 3 nM as agonist; type: cell-based; conditions: for IC50: first value of IC50/Kb cell; for Kb: second value of IC50/Kb cell; for inhibition at 1 µM: read-out: OX1R, % Inh. @ 1 uM
T1 construct: expressed in transfected cells; host or cells: CHO cells (G418 selection)
T1 sequence (O43613 1-425): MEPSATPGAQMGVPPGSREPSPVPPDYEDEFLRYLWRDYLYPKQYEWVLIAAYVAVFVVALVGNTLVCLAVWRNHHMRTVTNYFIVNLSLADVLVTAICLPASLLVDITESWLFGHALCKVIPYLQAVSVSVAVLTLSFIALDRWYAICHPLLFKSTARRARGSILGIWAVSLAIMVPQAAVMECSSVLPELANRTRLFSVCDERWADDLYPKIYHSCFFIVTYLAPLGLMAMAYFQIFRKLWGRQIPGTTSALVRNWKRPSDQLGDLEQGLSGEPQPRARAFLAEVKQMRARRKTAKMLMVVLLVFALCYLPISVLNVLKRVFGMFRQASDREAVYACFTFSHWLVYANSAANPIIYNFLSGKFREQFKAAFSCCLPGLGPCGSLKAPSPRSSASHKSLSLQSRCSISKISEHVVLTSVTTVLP
Description: (§1) In Vitro Orexin Antagonism Measurement Assay: Intracellular Calcium Measurements:
(§2) Chinese hamster ovary (CHO) cells expressing the human […] and the human orexin-2 receptor, respectively, are grown in culture medium (Ham F-12 with L-Glutamine) containing 300 μg/mL G418, 100 U/mL penicillin, 100 μg/mL streptomycin and 10% heat inactivated fetal calf serum (FCS). The cells are seeded at 20,000 cells/well into 384-well black clear bottom sterile plates (Greiner). The seeded plates are incubated overnight at 37° C. in 5% 002. Human orexin-A as an agonist is prepared as 1 mM stock solution in MeOH: water (1:1), diluted in HBSS containing 0.1% bovine serum albumin (BSA), NaHCO3: 0.375 g/L and 20 mM HEPES for use in the assay at a final concentration of 3 nM.
(§3) Antagonists are prepared as 10 mM stock solution in DMSO, then diluted in 384-well plates using DMSO followed by a transfer of the dilutions into in HBSS containing 0.1% bovine serum albumin (BSA), NaHCO3: 0.375 g/L and 20 mM HEPES. On the day of the assay, 50 μL of staining buffer (HBSS containing 1% FCS, 20 mM HEPES, NaHCO3: 0.375 g/L, 5 mM probenecid (Sigma) and 3 μM of the fluorescent calcium indicator fluo-4 AM (1 mM stock solution in DMSO, containing 10% pluronic) is added to each well. The 384-well cell-plates are incubated for 50 min at 37° C. in 5% CO2 followed by equilibration at RT for 30 min before measurement.
(§4) Within the Fluorescent Imaging Plate Reader (FLIPR Tetra, Molecular Devices), antagonists are added to the plate in a volume of 10 μL/well, incubated for 120 min and finally 10 μL/well of agonist is added. Fluorescence is measured for each well at 1 second intervals, and the height of each fluorescence peak is compared to the height of the fluorescence peak induced by 3 nM orexin-A with vehicle in place of antagonist. The IC50 value (the concentration of compound needed to inhibit 50% of the agonistic response) is determined and may be normalized using the obtained IC50 value of an on-plate reference compound. Optimized conditions were achieved by adjustment of pipetting speed and cell splitting regime. The calculated IC50values may fluctuate depending on the daily cellular assay performance. Fluctuations of this kind are known to those skilled in the art.

[2] = biological target: T2, human orexin-2 receptor (OX2R) (Homo sapiens, UniProt O43614); test: as above; type: cell-based; conditions: for inhibition at 1 µM: read-out: OX2R, % Inh. @ 1 uM; for IC50: first value of IC50/Kb cell; for Kb: second value of IC50/Kb cell
T2 construct: expressed in transfected cells; host or cells: CHO cells (G418 selection)
T2 sequence (O43614 1-444): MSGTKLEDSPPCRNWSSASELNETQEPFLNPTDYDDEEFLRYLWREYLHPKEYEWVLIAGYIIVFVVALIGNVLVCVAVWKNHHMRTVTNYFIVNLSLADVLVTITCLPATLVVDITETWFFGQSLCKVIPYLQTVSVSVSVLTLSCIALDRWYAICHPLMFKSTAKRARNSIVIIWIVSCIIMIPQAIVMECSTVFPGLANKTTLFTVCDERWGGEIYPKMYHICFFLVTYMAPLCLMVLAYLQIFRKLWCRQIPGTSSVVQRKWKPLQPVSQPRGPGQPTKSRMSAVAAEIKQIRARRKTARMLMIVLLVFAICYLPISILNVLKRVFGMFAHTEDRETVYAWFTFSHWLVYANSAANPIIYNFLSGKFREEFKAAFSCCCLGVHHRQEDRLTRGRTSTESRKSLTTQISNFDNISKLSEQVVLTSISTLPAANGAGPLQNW
Description: Antagonistic activities on both orexin receptors have been measured for each example compound using the following procedure:
as §1, §2, §3
as §4, with “art. In the case where IC50values have been determined several times for the same compound, the geometric mean has been given.” for “art.”

Structure (SMILES) | IC50 [1] | Kb [1] | inhibition at 1 µM [2] | inhibition at 1 µM [1] | IC50 [2] | Kb [2]
O=C(c1c(-c2ccccc2)nn2c1COCC2)N1CCC[C@H]1CNc1ccc(C(F)(F)F)cn1 [Example 2] | 120 nM | – | – | – | – | –
CCc1cnc(NC[C@@H]2[C@H](C)CCCN2C(=O)c2c(-c3ccccc3)nn3c2COCC3)nc1 [Example 5] | 140 nM | – | – | – | – | –
C[C@@H]1CCCN(C(=O)c2c(-c3ccccc3)nn3ccccc23)[C@@H]1CNc1ccc(C(F)(F)F)cn1 [Example 6] | – | 2 nM | – | – | – | –
CCc1cnc(NC[C@@H]2CCCN2C(=O)c2c(-c3ccccc3)nn3ccccc23)nc1 [Example 15] | 180 nM | 38 nM | – | – | – | –
O=C(c1c(-c2ccccc2)nc2ccccn12)N1CCC[C@H]1COc1ccc(C(F)(F)F)cn1 [Example 18] | 290 nM | – | – | – | – | –
C[C@@H]1CCCN(C(=O)c2c(-c3ccccc3)nn3ccccc23)[C@@H]1CNc1ncc(F)cn1 [Example 22] | 10 nM | 2 nM | -3% | 82.2% | – | –
O=C(c1c(-c2ccccc2)nn2ccccc12)N1CCC[C@H]1CNc1ncc(F)cn1 [Example 23] | – | – | 13.5% | 23% | – | –
O=C(c1c(-c2ccccc2)nn2ccccc12)N1CCCC[C@H]1CNc1ccc(C(F)(F)F)cn1 [Example 25] | 17 nM | 4 nM | 72% | 99.8% | 74 nM | 10 nM
O=C(c1c(-c2ccccc2)nc2ccccn12)N1CCCC[C@H]1CNc1ccc(C(F)(F)F)cn1 [Example 26] | 14 nM | 3 nM | 39.4% | 99.5% | – | –
O=C(c1c(-c2ccccc2)nn2c1COCC2)N1CCCC[C@H]1CNc1ccc(C(F)(F)F)cn1 [Example 27] | 9 nM | 2 nM | 50.4% | 99% | – | –
O=C(c1nn2ccccc2c1-c1ccccc1)N1CCC[C@H]1COc1ccc(C(F)(F)F)cn1 [Example 28] | 4 nM | 1 nM | 52.5% | 98.4% | – | –
O=C(c1nn2ccccc2c1-c1ccccc1)N1CCC[C@H]1CNc1ccc(C(F)(F)F)cn1 [Example 29] | 5 nM | 1 nM | 84.1% | 99.5% | 35 nM | 5 nM
O=C(c1c(-c2ccccc2)nn2ccccc12)N1CCC[C@H]1CNc1ccc(F)cn1 [Example 30] | – | – | 14.8% | 32.5% | – | –
O=C(c1c(-c2ccccc2)nc2ncccn12)N1CCC[C@H]1CNc1ccc(F)cn1 [Example 31] | – | – | -3.4% | 4.7% | – | –
O=C(c1c(-c2ccccc2)nc2ncccn12)N1CCC[C@H]1CNc1ccc(C(F)(F)F)cn1 [Example 32] | – | – | 3.6% | 19.7% | – | –
O=C(c1c(-c2ccccc2)nc2ccccn12)N1CCC[C@H]1CNc1ccc(F)cn1 [Example 33] | – | – | 0.7% | 4.8% | – | –
O=C(c1c(-c2ccccc2)nc2ncccn12)N1CCC[C@H]1Cn1ccc(-c2ccccc2)n1 [Example 35] | – | – | 23.7% | 54.8% | – | –

Structure (SMILES) | IC50 [1] | Kb [1] | inhibition at 1 µM [2] | inhibition at 1 µM [1] | IC50 [2] | Kb [2]
O=C(c1c(-c2ccccc2)nc2cnccn12)N1CCC[C@H]1CNc1ccc(C(F)(F)F)cn1 [Example 36] | – | – | 14.7% | 53.7% | – | –
O=C(c1c(-c2ccccc2)nn2ccccc12)N1CCC[C@H]1COc1ccc(Br)nc1 [Example 37] | – | – | 10.4% | 25.4% | – | –
O=C(c1c(-c2ccccc2)nc2ccccn12)N1CCC[C@H]1COc1ccc(Br)nc1 [Example 38] | – | – | -6.1% | 8.2% | – | –
O=C(c1c(-c2ccccc2)nc2cnccn12)N1CCC[C@H]1COc1ccc(C(F)(F)F)nc1 [Example 39] | – | – | 7.9% | 39.4% | – | –
O=C(c1c(-c2ccc(F)cc2)nn2ccccc12)N1CCC[C@H]1CNc1ccc(F)cn1 [Example 41] | – | – | 3.2% | 45.6% | – | –
O=C(c1c(-c2ccc(F)cc2)nn2ccccc12)N1CCC[C@H]1CNc1ccc(C(F)(F)F)cn1 [Example 42] | 12 nM | 3 nM | 39.4% | 98.2% | – | –
O=C(c1c(-c2ccc(F)cc2)nn2ccccc12)N1CCC[C@H]1COc1ccc(C(F)(F)F)cn1 [Example 43] | 9 nM | 2 nM | 28.3% | 93.1% | – | –
O=C(c1c(-c2ccccc2)nc2ccccn12)N1CCCC[C@H]1COc1ccc(C(F)(F)F)cn1 [Example 45] | 4 nM | 0.9 nM | 38.8% | 98.7% | – | –
O=C(c1c(-c2ccccc2)nc2ncccn12)N1CCCC[C@H]1COc1ccc(C(F)(F)F)cn1 [Example 47] | – | – | 1.2% | 59.5% | – | –
O=C(c1c(-c2ccccc2)nc2ncccn12)N1CCC[C@H]1COc1ccc(C(F)(F)F)cn1 [Example 48] | – | – | -1.1% | 18.9% | – | –
O=C(c1c(-c2ccccc2)nc2ccc(F)cn12)N1CCC[C@H]1COc1ccc(C(F)(F)F)cn1 [Example 51] | 80 nM | 17 nM | 46.5% | 88.1% | – | –
O=C(c1c(-c2ccccc2)nc2cc(F)ccn12)N1CCC[C@H]1COc1ccc(C(F)(F)F)cn1 [Example 52] | 327 nM | 69 nM | 43.3% | 79.2% | – | –
O=C(c1c(-c2ccc(F)cc2)nn2c1COCC2)N1CCC[C@H]1Cn1ccc(-c2ccc(F)cc2)n1 [Example 54] | 122 nM | 26 nM | 45.1% | 98% | – | –
O=C(c1c(-c2ccccc2F)nn2c1COCC2)N1CCC[C@H]1Cn1ccc(-c2ccccn2)n1 [Example 70] | 120 nM | 25 nM | 35% | 60% | – | –
O=C(c1c(-c2ccccc2F)nn2c1COCC2)N1CCC[C@H]1Cn1cc(-c2ccccn2)cn1 [Example 71] | – | – | 40% | 14% | – | –
O=C(c1c(-c2ccccc2F)nn2c1COCC2)N1CCC[C@H]1Cn1cc(-c2ccccc2)cn1 [Example 72] | 620 nM | 13 nM | 45% | 64% | – | –
O=C(c1c(-c2ccccc2)nc2ccc(F)cn12)N1CCC[C@H]1Cn1cc(-c2ccccn2)cn1 [Example 74] | – | – | 45% | 40% | – | –
